# Experimental data reported in patent US9808423B2, “Preparation of suspension aerosol formulations” (Generics [UK] Limited, priority 2004, dated 2017).
# Experiment: Sympatec laser diffraction particle size of micronized medicament
# Format: physicochemical
# Conditions: Sympatec laser diffraction instrument; micronized starting material of Example 10
# Experimental: A stock solution of 16.0 g of ethanol USP and 0.0053 g of oleic acid was prepared. Into each of three 14-mL fluoropolymer (FEP-PES) coated aluminum canisters was added 7 mg of micronized salmeterol xinafoate, having a volume mean diameter (X50) of 1.6 μm as measured using a Sympatec laser diffraction instrument. To each canister was then added 10.0 g of HFA-134a, at about −70° C., and approximately 0.20 g of the stock solution. A 50-μL metering valve was crimp sealed to each canister. Each canister was sonicated for 1.5 minutes to promote mixing of the formulation and deaggregation of the medicament particles.
compound,measurement,value
"OCc1cc(C(O)CNCCCCCCOCCCCc2ccccc2)ccc1O (stereo not shown) [micronized salmeterol xinafoate, salmeterol xinafoate]",volume mean diameter (X50),1.6 μm
